The values below are quoted from earlier work in US20230323509A1, “Weak Acid Lixiviants for Recovery of Alkaline Earth Metals” (LIXIVIA, INC., priority 2020, published 2023).

Read-outs that look alike come from different tables or passages of the source.

Setting [1] is: acid listed without dissociation step index.

Take `CC#CC(=O)O` [2-butynoic acid]: under setting [1], the pKa (in general, the pH at which an ionisable group is half protonated) is recorded as 2.62.
Turning to `CCC(=O)C(=O)O` [2-oxobutanoic acid], the pKa under setting [1] was 2.5.
Turning to `CC(O)CC(=O)O` (stereo not shown) [3-hydoxybutanoic acid], under setting [1], the pKa is reported as 4.7.
In the case of `CCOCC(=O)O` [ethoxyacetic acid], the pKa under setting [1] is 3.65.
For `O=C(O)CCCC(=O)O` [glutaric acid], the pKa runs as follows: (dissociation step (1)) 4.32; (dissociation step (2)) 5.42.
On to `CC(C(=O)O)C(=O)O` [methylmalonic acid], for which, under “dissociation step (1)”, the pKa is 3.07.
Turning to `CC(CC(=O)O)C(=O)O` (stereo not shown) [methylsuccinic acid], the pKa is, setting by setting: (dissociation step (1)) 4.13; (dissociation step (2)) 5.64.
Take `O=C(O)CC(=O)C(=O)O` [oxaloacetic acid]: the pKa was 2.55 (dissociation step (1)) and 4.37 (dissociation step (2)).
On to `CCCCC(=O)O` [pentanoic acid], for which the pKa under setting [1] is listed as 4.83.
For the compound `O=c1[nH]c(=O)c2[nH]c(=O)[nH]c2[nH]1` [uric acid], the pKa under setting [1] was 3.89.
